Source: patent publication US10508109B2 (priority 2015, dated 2019)
Counter-ions that a name gives are not always drawn. Like-named read-outs stand apart in the source and are kept apart here.

Assays:
SUV39H2 = SUV39H2 (Homo sapiens (Human), UniProt Q9H5I1); test: biochemical; type: biochemical; conditions: 3H-SAM 100 nM, H3 Histone Peptide 350 nM, room temperature 3 hours
How it was run: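 Human SUV39H2, at a lot-specific concentration set by specific activity, was incubated with test compounds for 3 h at room temperature, then stopped with streptavidin SPA beads (50 μg/well final).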

A549 = test: Cell-based assay, anti-proliferative activity (Cell Counting Kit-8, 72 hours); conditions: Homo sapiens, read-out: A549 IC50
How it was run: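 IC50 values come from growth read-outs taken after the cells' exposure to each candidate inhibitor. Cells had been plated in 96-well microtiter plates beforehand.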

[1] = A549 cells, 72 hours exposure, Cell Counting Kit-8

SUV39H2, sequence (Q9H5I1 whole entry): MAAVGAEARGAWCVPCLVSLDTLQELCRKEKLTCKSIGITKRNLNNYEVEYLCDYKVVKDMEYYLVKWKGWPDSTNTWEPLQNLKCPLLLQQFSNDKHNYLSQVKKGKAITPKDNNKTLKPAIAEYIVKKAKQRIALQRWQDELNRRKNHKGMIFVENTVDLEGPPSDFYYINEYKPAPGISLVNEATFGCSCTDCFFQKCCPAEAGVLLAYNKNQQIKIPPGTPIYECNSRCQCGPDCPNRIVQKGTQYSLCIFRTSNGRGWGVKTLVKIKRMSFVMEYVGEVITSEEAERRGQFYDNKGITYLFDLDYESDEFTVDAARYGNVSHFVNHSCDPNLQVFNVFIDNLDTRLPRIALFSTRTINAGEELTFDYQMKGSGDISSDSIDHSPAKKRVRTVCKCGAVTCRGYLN

SMILES | IC50 (SUV39H2) [nM] | IC50 (A549; A549, 72 h) [nM] | IC50 (A549; [1]) [nM]
COc1cc(OC)c(-c2cn3ccc(N4CCN(c5cnc(N6CCC(N)C6)nc5)CC4)cc3n2)cc1Cl (stereo not drawn) [Example 378, 1-(5-(4-(2-(5-chloro-2,4-dimethoxyphenyl)imidazo[1,2-a]pyridin-7-yl)piperazin-1-yl)pyrimidin-2-yl)pyrrolidin-3-amine dihydrochloride] | 22.8 | 680 | –
COc1cc(OC)c(-c2cn3ccc(N4CCN(c5nc(N)nc(N6CCOCC6)n5)CC4)cc3n2)cc1Cl [Example 379, 4-(4-(2-(5-chloro-2,4-dimethoxyphenyl)imidazo[1,2-a]pyridin-7-yl)piperazin-1-yl)-6-morpholino-1,3,5-triazin-2-amine] | 26.9 | – | 420
COc1ccc(CN[C@H]2CC[C@@H](Nc3ccn4cc(-c5cc(Cl)c(OC)cc5OC)nc4c3)CC2)cc1 [Example 380, cis-N^1-(2-(5-chloro-2,4-dimethoxyphenyl)imidazo[1,2-a]pyridin-7-yl)-N^4-(4-methoxybenzyl)cyclohexane-1,4-diamine bis(2,2,2-trifluoroacetate)] | 33.3 | – | 600
COc1cc(OC)c(-c2cn3ccc(N4CCN(c5cccc(N6CCN(C)CC6)n5)CC4)cc3n2)cc1Cl [Example 381, 2-(5-chloro-2,4-dimethoxyphenyl)-7-(4-(6-(4-methylpiperazin-1-yl)pyridin-2-yl)piperazin-1-yl)imidazo[1,2-a]pyridine] | 43.1 | – | 770
COc1cc(OC)c(-c2cn3ccc(N4CCN(c5nccc(N6CCN(C(=O)Cc7ccccc7)CC6)n5)CC4)cc3n2)cc1Cl [Example 382, 1-(4-(2-(4-(2-(5-chloro-2,4-dimethoxyphenyl)imidazo[1,2-a]pyridin-7-yl)piperazin-1-yl)pyrimidin-4-yl)piperazin-1-yl)-2-phenylethanone dihydrochloride] | 31.7 | 680 | –
COc1cc(OC)c(-c2cn3ccc(N4CCCN(c5cncnc5)CC4)cc3n2)cc1Cl [Example 383, 2-(5-chloro-2,4-dimethoxyphenyl)-7-(4-(pyrimidin-5-yl)-1,4-diazepan-1-yl)imidazo[1,2-a]pyridine] | 13.8 | – | 880
COc1cc(OC)c(-c2cn3ccc(N4CCN(c5cc(N6CCOCC6)nc(N)n5)CC4)cc3n2)cc1Cl [Example 384, 4-(4-(2-(5-chloro-2,4-dimethoxyphenyl)imidazo[1,2-a]pyridin-7-yl)piperazin-1-yl)-6-morpholinopyrimidin-2-amine] | 10.9 | – | 940
COc1cc(OC)c(-c2cn3ccc(N4CCN(c5cc(N6CCCC6)nc(N)n5)CC4)cc3n2)cc1Cl [Example 385, 4-(4-(2-(5-chloro-2,4-dimethoxyphenyl)imidazo[1,2-a]pyridin-7-yl)piperazin-1-yl)-6-(pyrrolidin-1-yl)pyrimidin-2-amine] | 38 | – | 660
COc1cc(OC)c(-c2cn3ccc(N4CC[C@H](NCc5ccc(NC(=O)OC(C)(C)C)cc5)C4)cc3n2)cc1Cl [Example 386, (S)-tert-butyl (4-(((1-(2-(5-chloro-2,4-dimethoxyphenyl)imidazo[1,2-a]pyridin-7-yl)pyrrolidin-3-yl)amino)methyl)phenyl)carbamate] | 24.8 | – | 730
COc1cc(OC)c(-c2cn3cnc(N4CC[C@H](NC(=O)OC(C)(C)C)C4)cc3n2)cc1Cl [Example 387, (S)-tert-butyl (1-(2-(5-chloro-2,4-dimethoxyphenyl)imidazo[1,2-c]pyrimidin-7-yl)pyrrolidin-3-yl)carbamate] | 33.2 | – | 1600
COc1cc(OC)c(-c2cn3ccc(N4CCCN(Cc5ccncc5)CC4)cc3n2)cc1Cl [Example 388, 2-(5-chloro-2,4-dimethoxyphenyl)-7-(4-(pyridin-4-ylmethyl)-1,4-diazepan-1-yl)imidazo[1,2-a]pyridine dihydrochloride] | 5.05 | 560 | –
COc1cc(OC)c(-c2cn3ccc(N4CCN(c5cc(N(C)C)nc(N)n5)CC4)cc3n2)cc1Cl [Example 389, 6-(4-(2-(5-chloro-2,4-dimethoxyphenyl)imidazo[1,2-a]pyridin-7-yl)piperazin-1-yl)-N^4,N^4-dimethylpyrimidine-2,4-diamine dihydrochloride] | 39.3 | 750 | –
COc1cc(OC)c(-c2cn3cnc(N4CCN(S(=O)(=O)C5CC5)CC4)cc3n2)cc1Cl [Example 390, 2-(5-chloro-2,4-dimethoxyphenyl)-7-(4-(cyclopropylsulfonyl)piperazin-1-yl)imidazo[1,2-c]pyrimidine] | 99.6 | – | 390
COc1cc(OC)c(-c2cn3ccc(N[C@H]4C[C@H]5CC[C@@H](C4)N5C(=O)OC(C)C)cc3n2)cc1Cl [Example 391, (1R,3r,5S)-isopropyl 3-((2-(5-chloro-2,4-dimethoxyphenyl)imidazo[1,2-a]pyridin-7-yl)amino)-8-azabicyclo[3.2.1]octane-8-carboxylate] | 79.3 | – | 990
COc1cc(OC)c(-c2cn3ccc(N[C@H]4CC[C@@H](NC(=O)c5ccccc5O)CC4)cc3n2)cc1Cl [Example 392, N-(cis-4-((2-(5-chloro-2,4-dimethoxyphenyl)imidazo[1,2-a]pyridin-7-yl)amino)cyclohexyl)-2-hydroxybenzamide trifluoroacetate] | 52.7 | – | 680
COc1cc(OC)c(-c2cn3ccc(N4CC[C@H](NCc5ccc(N(C)C(=O)OC(C)(C)C)cc5)C4)cc3n2)cc1Cl [Example 394, (S)-tert-butyl (4-(((1-(2-(5-chloro-2,4-dimethoxyphenyl)imidazo[1,2-a]pyridin-7-yl)pyrrolidin-3-yl)amino)methyl)phenyl)(methyl)carbamate] | 10.3 | – | 800
COc1cc(OC)c(-c2cn3ccc(N4CCN(c5ccnc(NCCCO)n5)CC4)cc3n2)cc1Cl [Example 395, 3-((4-(4-(2-(5-chloro-2,4-dimethoxyphenyl)imidazo[1,2-a]pyridine-7-yl)piperazin-1-yl)pyrimidin-2-yl)amino)propan-1-ol] | 14 | – | 770
CNC1CCN(c2ncc(N3CCN(c4ccn5cc(-c6cc(Cl)c(OC)cc6OC)nc5c4)CC3)cn2)CC1 [Example 396, 1-(5-(4-(2-(5-chloro-2,4-dimethoxyphenyl)imidazo[1,2-a]pyridin-7-yl)piperazin-1-yl)pyrimidin-2-yl)-N-methylpiperidin-4-amine dihydrochloride] | 14.6 | 780 | –
COc1cc(OC)c(-c2cn3ccc(N[C@H]4CC[C@H](NCc5cccc(C#N)c5)CC4)cc3n2)cc1Cl [Example 397, 3-((((1r,4r)-4-((2-(5-chloro-2,4-dimethoxyphenyl)imidazo[1,2-a]pyridin-7-yl)amino)cyclohexyl)amino)methyl)benzonitrile] | 64.6 | – | 700
COc1cc(OC)c(-c2cn3ccc(N[C@H]4CC[C@H](Nc5nccc(N6CCN(C)CC6)n5)CC4)cc3n2)cc1Cl [Example 398, (1r,4r)-N^1-(2-(5-chloro-2,4-dimethoxyphenyl)imidazo[1,2-a]pyridin-7-yl)-N^4-(4-(4-methylpiperazin-1-yl)pyrimidin-2-yl)cyclohexane-1,4-diamine] | 23.3 | – | 440
COc1cc(OC)c(-c2cn3ccc(N4CCN(c5ccnc(NCC(C)O)n5)CC4)cc3n2)cc1Cl (stereo not drawn) [Example 399, 1-((4-(4-(2-(5-chloro-2,4-dimethoxyphenyl)imidazo[1,2-a]pyridine-7-yl)piperazin-1-yl)pyrimidin-2-yl)amino)propan-2-ol] | 11.7 | – | 660
COc1cc(OC)c(-c2cn3ccc(N4CC[C@H](NCC5CCN(C(=O)OC(C)(C)C)CC5)C4)cc3n2)cc1Cl [Example 400, (S)-tert-butyl 4-(((1-(2-(5-chloro-2,4-dimethoxyphenyl)imidazo[1,2-a]pyridine-7-yl)pyrrolidin-3-yl)amino)methyl)piperidine-1-carboxylate] | 7.15 | – | 930
CNC1CCN(c2ncc(N3CCN(c4ccn5cc(-c6cc(Cl)c(OC)cc6OC)nc5c4)CC3)cn2)C1 (stereo not drawn) [Example 401, 1-(5-(4-(2-(5-chloro-2,4-dimethoxyphenyl)imidazo[1,2-a]pyridin-7-yl)piperazin-1-yl)pyrimidin-2-yl)-N-methylpyrrolidin-3-amine dihydrochloride] | 6.81 | 500 | –
COc1cc(OC)c(-c2cn3ccc(N[C@H]4CC[C@@H](NCc5cccc(F)c5)CC4)cc3n2)cc1Cl [Example 402, cis-N^1-(2-(5-chloro-2,4-dimethoxyphenyl)imidazo[1,2-a]pyridin-7-yl)-N^4-(3-fluorobenzyl)cyclohexane-1,4-diamine bis(2,2,2-trifluoroacetate)] | 18.7 | – | 740
COc1cc(OC)c(-c2cn3ccc(N[C@H]4CC[C@@H](NCc5ccc(C#N)cc5)CC4)cc3n2)cc1Cl [Example 403, 4-((((1s,4s)-4-((2-(5-chloro-2,4-dimethoxyphenyl)imidazo[1,2-a]pyridine-7-yl)amino)cyclohexyl)amino)methyl) benzonitrile] | 15.1 | – | 750
COc1cc(OC)c(-c2cn3ccc(N4CC[C@H](NC(=O)c5ccccn5)C4)cc3n2)cc1Cl [Example 404, (S)—N-(1-(2-(5-chloro-2,4-dimethoxyphenyl)imidazo[1,2-a]pyridin-7-yl)pyrrolidin-3-yl)picolinamide] | 4.03 | – | 1500
COc1cc(OC)c(-c2cn3ccc(N4CCN(c5nccc(N6CCC(N)C6)n5)CC4)cc3n2)cc1Cl (stereo not drawn) [Example 405, 1-(2-(4-(2-(5-chloro-2,4-dimethoxyphenyl)imidazo[1,2-a]pyridin-7-yl)piperazin-1-yl)pyrimidin-4-yl)pyrrolidin-3-amine] | 15.3 | – | 690
